IC50 data for 36 compounds are collected here from patent US20250304537A1 (Repare Therapeutics Inc., priority 2022, published 2025).

Where only a bound is given, the exact number is not on record here.

Test [1] deals with recombinant human Myt1 (full length PKMYT1) (Homo sapiens (Human), UniProt Q99640). The test is described as follows: Recombinant human Myt1 kinase assay (ADP-Glo). The class given is biochemical. Particulars: 10 μM ATP. A digest of the protocol: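 ADP-Glo luminescence measured ATP hydrolysis by recombinant full-length PKMYT1 (18 nM) after 60 min at 30 °C with 10 μM ATP. Compounds in 0.5% DMSO were added to the enzyme 15 min before ATP, at 22 °C, in HEPES/MgCl2/MnCl2 buffer. IC50 and percent maximal inhibition were derived.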
recombinant human Myt1 (full length PKMYT1), sequence (Q99640 whole entry): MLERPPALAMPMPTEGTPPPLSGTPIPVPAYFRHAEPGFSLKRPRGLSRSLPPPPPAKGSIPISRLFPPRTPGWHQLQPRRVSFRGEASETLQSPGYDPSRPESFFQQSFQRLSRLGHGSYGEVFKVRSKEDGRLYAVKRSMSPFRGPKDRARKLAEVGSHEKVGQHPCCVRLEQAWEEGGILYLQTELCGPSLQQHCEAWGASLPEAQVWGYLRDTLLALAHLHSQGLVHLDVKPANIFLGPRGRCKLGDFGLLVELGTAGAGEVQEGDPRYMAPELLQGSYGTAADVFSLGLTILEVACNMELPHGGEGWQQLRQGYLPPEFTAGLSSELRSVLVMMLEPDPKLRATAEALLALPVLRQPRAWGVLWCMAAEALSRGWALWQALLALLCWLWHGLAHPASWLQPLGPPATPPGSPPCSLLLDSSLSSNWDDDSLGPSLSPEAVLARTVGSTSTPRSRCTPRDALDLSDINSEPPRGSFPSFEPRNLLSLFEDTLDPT
(ADP-Glo turns the ADP formed in a reaction into a luminescent signal.)

Test [2] has as its system PKMYT1 (CDK1 pThr14) in FUOV1 cells. The test is described as follows: PKMYT1 cell-based activity assay, CDK1 pThr14 AlphaLISA in FUOV1 cells. Particulars: 2 h, 2 h compound incubation, read-out: FUOV-1 CDK1 pThr14 IC50. A digest of the protocol: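 IC50 was derived from AlphaLISA signal (excitation 680 nm, emission 615 nm) for phospho-Thr14 CDK1 in lysates. The detection antibodies were rabbit anti-pThr14 and mouse anti-total CDK1, each at 5 nM. FUOV1 ovarian cells were exposed to compound for 2 hours before lysis.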
In general terms: Alpha assays give light when donor and acceptor beads are brought close together.

For `Cc1ccc2[nH]ncc2c1-c1nc(-c2ccccc2NC(=O)C2CC(F)(F)C2)nc(C(N)=O)c1N` [Compound 415], the results for the IC50 in test [1] and in test [2] were 8 nM and 210 nM, respectively.
On the same counts, the results for `Cc1ccc2[nH]ncc2c1-c1nc(-c2ccccc2NC(=O)C2(C)CCC2)nc(C(N)=O)c1N` [Compound 416] are 7 nM and 22 nM.
On the same counts, the results for `Cc1ccc2[nH]ncc2c1-c1nc(-c2ccccc2NC(=O)C2CC(C)(C)C2)nc(C(N)=O)c1N` [Compound 417] are 18 nM and 899 nM.
For the compound `Cc1ccc2[nH]ncc2c1-c1c(N)c(C(N)=O)cc2c1oc1ccccc12` [Compound 418, 3-amino-4-(5-methyl-1H-indazol-4-yl)dibenzo[b,d]furan-2-carboxamide], the IC50 (as a rule, the midpoint of a concentration-inhibition curve) in test [1] came to 27 nM; in test [2], 1330 nM.
On the same counts, the results for `Cc1ccc2[nH]ncc2c1-c1nc(-c2ccccc2NC(C)C)nc(C(N)=O)c1N` [Compound 419] are 4 nM and 49 nM.
On the same counts, the results for `COC(C)(C)C(=O)Nc1ccccc1-c1nc(C(N)=O)c(N)c(-c2c(C)ccc3[nH]ncc23)n1` [Compound 420] are 7 nM and 65 nM.
The matching figures for `Cc1ccc2[nH]ncc2c1-c1nc(-c2cc(F)ccc2NCC(F)F)nc(C(N)=O)c1N` [Compound 421]: 4 nM and 40 nM.
Take `Cc1ccc2[nH]ncc2c1-c1nc(-c2ccccc2NC(=O)[C@]2(C)CCCN2)nc(C(N)=O)c1N` [Compound 422]: the IC50 in test [1] was 19 nM; in test [2], 373 nM.
Turning to `Cc1ccc2[nH]ncc2c1-c1nc(-c2ccccc2NC(=O)C2(C#N)CC2)nc(C(N)=O)c1N` [Compound 423], the IC50 was determined as 4 nM in test [1] and 23 nM in test [2].
The matching figures for `Cc1ccc2[nH]ncc2c1-c1nc(-c2ccccc2NC(=O)C2CCOCC2)nc(C(N)=O)c1N` [Compound 424]: 4 nM and 81 nM.
On the same counts, the results for `Cc1ccc2[nH]ncc2c1-c1nc(-c2ccccc2NC(=O)C(C)c2ccccc2)nc(C(N)=O)c1N` (stereo not drawn) [Compound 425] are 139 nM and more than 10000 nM.
The matching figures for `Cc1ccc2[nH]ncc2c1-c1nc(-c2ccccc2NS(=O)(=O)C2CC2)nc(C(N)=O)c1N` [Compound 426]: 4 nM and 38 nM.
`Cc1ccc2[nH]ncc2c1-c1nc(-c2ccccc2NS(C)(=O)=O)nc(C(N)=O)c1N` [Compound 427, 5-amino-6-(5-methyl-1H-indazol-4-yl)-2-(2-(methylsulfonamido)phenyl)pyrimidine-4-carboxamide]: the IC50 in test [1] came to 4 nM; in test [2], 23 nM.
In the case of `Cc1ccc(O)c(C)c1-c1nc(-c2ccccc2NC(=O)C2(C)CC2)cc(C(N)=O)c1N` [Compound 428], the IC50 was 3 nM in test [1] and 26 nM in test [2].
On the same counts, the results for `Cc1ccc2[nH]ncc2c1-c1nc(-c2ccccc2N[C@@H](C)C(F)(F)F)nc(C(N)=O)c1N` [Compound 429] are 4 nM and 36 nM.
The matching figures for `Cc1ccc2[nH]ncc2c1-c1nc(-c2ccccc2N[C@H](C)C(F)(F)F)nc(C(N)=O)c1N` [Compound 430]: 8 nM and 8 nM.
The matching figures for `Cc1ccc2[nH]ncc2c1-c1nc(-c2ccccc2NC(=O)[C@@]2(C)CCCN2)nc(C(N)=O)c1N` [Compound 431]: 8 nM and 5 nM.
Consider `COC1(C(=O)Nc2ccccc2-c2nc(C(N)=O)c(N)c(-c3c(C)ccc4[nH]ncc34)n2)CC1` [Compound 432], for which the values for the IC50 in test [1] and in test [2] were 5 nM and 105 nM, respectively.
For the compound `Cc1ccc(-c2nc(C(N)=O)c(N)c(-c3c(C)ccc4[nH]ncc34)n2)c(NC(=O)C2(C)CC2)c1` [Compound 433], the IC50 in test [1] was 5 nM; in test [2], 13 nM.
On the same counts, the results for `Cc1ccc2[nH]ncc2c1-c1nc(-c2ccccc2NC(=O)C(C)(C)F)nc(C(N)=O)c1N` [Compound 434] are 3 nM and 8 nM.
On the same counts, the results for `Cc1ccc2[nH]ncc2c1-c1nc(-c2cccc(F)c2NCC(F)F)nc(C(N)=O)c1N` [Compound 435] are 4 nM and 136 nM.
On the same counts, the results for `Cc1ccc2[nH]ncc2c1-c1nc(-c2cc(F)cc(F)c2NCC(F)F)nc(C(N)=O)c1N` [Compound 436] are 7 nM and 206 nM.
Turning to `Cc1ccc(NC(=O)C2(C)CC2)c(-c2nc(C(N)=O)c(N)c(-c3c(C)ccc4[nH]ncc34)n2)c1` [Compound 437], the concentration for half-maximal inhibition (IC50) in test [1] came out at 8 nM; in test [2], 59 nM.
The matching figures for `Cc1ccc2[nH]ncc2c1-c1nc(-c2ccc(Cl)cc2NC(=O)C2(C)CC2)nc(C(N)=O)c1N` [Compound 438]: 4 nM and 17 nM.
The matching figures for `Cc1ccc2[nH]ncc2c1-c1nc(-c2cc(Cl)ccc2NC(=O)C2(C)CC2)nc(C(N)=O)c1N` [Compound 439]: 6 nM and 42 nM.
Consider `Cc1cccc(-c2nc(C(N)=O)c(N)c(-c3c(C)ccc4[nH]ncc34)n2)c1NC(=O)C1(C)CC1` [Compound 440], for which the values for the IC50 in test [1] and in test [2] were 13 nM and 523 nM, respectively.
For `Cc1ccc2[nH]ncc2c1-c1nc(-c2ccccc2NC(=O)C2(Cl)CC2)nc(C(N)=O)c1N` [Compound 441], the figures for the IC50 in test [1] and in test [2] were 4 nM and 8 nM, respectively.
With `CCNc1ccccc1-c1nc(C(N)=O)c(N)c(-c2c(C)ccc3[nH]ncc23)n1` [Compound 442], the results for the IC50 in test [1] and in test [2] were 4 nM and 33 nM, respectively.
With `Cc1ccc2[nH]ncc2c1-c1nc(-c2ccccc2NC(=O)C2(C)CC2(F)F)nc(C(N)=O)c1N` (stereo not drawn) [Compound 443], the IC50 was 3 nM in test [1] and 26 nM in test [2].
On to `Cc1ccc2[nH]ncc2c1-c1nc(-c2cc(C(F)(F)F)ccc2NC(=O)C2(C)CC2)nc(C(N)=O)c1N` [Compound 445], for which the IC50 came out at 38 nM in test [1] and 1030 nM in test [2].
On the same counts, the results for `Cc1ccc2[nH]ncc2c1-c1nc(-c2cc(F)c(F)cc2NC(=O)C2(C)CC2)nc(C(N)=O)c1N` [Compound 446] are 8 nM and 8 nM.
The matching figures for `Cc1ccc2[nH]ncc2c1-c1nc(-c2cc(F)ccc2NC(=O)C2(C)CC2)nc(C(N)=O)c1N` [Compound 447]: 3 nM and 5 nM.
For `Cc1ccc2[nH]ncc2c1-c1nc(-c2ccccc2NC(=O)C23CC(F)(C2)C3)nc(C(N)=O)c1N` [Compound 448], the IC50 turned out to be 7 nM in test [1] and 112 nM in test [2].
On the same counts, the results for `Cc1ccc2[nH]ncc2c1-c1nc(-c2ccccc2Nc2ncccn2)nc(C(N)=O)c1N` [Compound 449, 5-amino-6-(5-methyl-1H-indazol-4-yl)-2-(2-(pyrimidin-2-ylamino)phenyl)pyrimidine-4-carboxamide] are 7 nM and 23 nM.
Turning to `Cc1ccc2[nH]ncc2c1-c1nc(-c2ccccc2Nc2ccc(F)cn2)nc(C(N)=O)c1N` [Compound 450], the values for the IC50 in test [1] and in test [2] were 8 nM and 121 nM, respectively.
The matching figures for `Cc1ccc2[nH]ncc2c1-c1nc(-c2ccccc2NC(C)(C)C)nc(C(N)=O)c1N` [Compound 451]: 7 nM and 104 nM.
